In the NIST ThermoML archive (doi:10.1021/je500381c):

Assay: xn = mol fraction of the nth substance listed
Details: for mass density / viscosity: 100 kPa, Liquid; for mass density: Vibrating tube method; for surface tension liquid-gas: Drop volume

CC12CC3CC(C1)CC(C)(C3)C2 [1,3-dimethyladamantane] + CCCCCCCO
Details | mass density, 293.15 K [kg/m3] | mass density, 298.15 K [kg/m3] | mass density, 303.15 K [kg/m3] | mass density, 308.15 K [kg/m3] | mass density, 313.15 K [kg/m3] | surface tension liquid-gas, 298.15 K [mN/m] | viscosity, 293.15 K [mPa·s] | viscosity, 298.15 K [mPa·s] | viscosity, 303.15 K [mPa·s] | viscosity, 308.15 K [mPa·s]
x2 = 0 | 901.58 | 898.04 | 894.48 | 890.92 | 887.35 | 27.88 | 3.764 | 3.345 | 3.004 | 2.711
x2 = 0.1001 | 895.5 | 891.87 | 888.23 | 884.58 | 880.92 | 27.82 | 3.692 | 3.271 | 2.913 | 2.609
x2 = 0.199 | 889.11 | 885.48 | 881.84 | 878.15 | 874.46 | – | 3.788 | 3.342 | 2.963 | 2.642
x2 = 0.1997 | – | – | – | – | – | 27.69 | – | – | – | –
x2 = 0.2998 | 882.35 | 878.72 | 875.06 | 871.37 | 867.67 | 27.48 | 3.972 | 3.475 | 3.066 | 2.721
x2 = 0.3997 | 875.32 | 871.68 | 868.01 | 864.33 | 860.62 | 27.35 | 4.181 | 3.686 | 3.238 | 2.862
x2 = 0.4997 | 867.82 | 864.19 | 860.52 | 856.84 | – | 27.15 | 4.522 | 3.909 | 3.414 | 3
x2 = 0.6002 | 859.93 | 856.3 | 852.65 | 848.97 | – | 27.02 | 4.92 | 4.218 | 3.657 | 3.194
x2 = 0.7 | 851.41 | 847.82 | 844.21 | 840.56 | – | 26.79 | 5.419 | 4.611 | 3.967 | 3.439
x2 = 0.7996 | 842.45 | 838.88 | 835.28 | 831.66 | – | 26.56 | 5.924 | 5.028 | 4.304 | 3.711
x2 = 0.8999 | 832.71 | 829.21 | 825.66 | 822.07 | – | 26.36 | 6.447 | 5.454 | 4.649 | 3.992
